In this test the test system is A549. As to the kind of experiment: Antiproliferative activity against human A549 cells after 48 hrs by CCK-8 assay. The format is functional, cell-based. The conditions noted are these: A549, 48 h.

The text below walks through data of ChEMBL document CHEMBL4229361, “A novel tetrahydroisoquinoline (THIQ) analogue induces mitochondria-dependent apoptosis” (Eur J Med Chem, 2018).

Compound `COc1cc2c(cc1OC)C(C#Cc1ccccc1)NCC2` (configuration not stated) returned an IC50 of 40.1 µM.
The figure for `C(#CC1NCCc2cc(OCc3ccccc3)c(OCc3ccccc3)cc21)c1ccccc1` (configuration not stated) is 22.4 µM.
